Data from patent US20210382058A1, “PATIENT SELECTION FOR TREATMENT OF MYC POSITIVE CANCERS WITH INDENOISOQUINOLINES” (Purdue Research Foundation, priority 2020, published 2021).
Like-named read-outs stand apart in the source and are kept apart here.

What was measured:
[1] = test system: MYC protein expression in MCF-7 breast cancer cells; experiment: Western blotting of MYC protein level in MCF-7 cells; type: cell-based, human
Method in brief: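 MCF-7 cells were exposed to compounds at 0.5, 1, 2 and 4 μM for 24 hours at 37° C. MYC was detected by immunoblot with ECL, using rabbit anti-MYC (1:1000) and anti-GAPDH (1:2000) as loading control.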

[2] = test system: NCI-60 cancer cell lines; experiment: NCI-60 cancer cell line drug screen (GI50, MGM); type: cell-based, human; conditions: Homo sapiens; for GI50: read-out: Antiproliferative Activities [GI50 (μM)]
Description: Cancer cells were incubated with the test compounds at five concentrations ranging from 100 μM to 10 nM for 48 h. […] The approximate average of GI50 values across the entire panel of NCI-60 cancer cell lines for each compound was recorded as the MGM value.

SMILES: O=C1c2ccccc2-c2c1c1ccccc1c(=O)n2CCCNCCO [Compound 13]
- minimal effective concentration ([1]; Homo sapiens, MCF7, western blotting, MCF-7 cells, 0.5, 1, 2, and 4 μM, 24 hours, read-out: MYC Inhibition): 0.5 to 1 µM
- MYC-inhibitory effect (MYC protein, western blot) ([1]; MCF-7, 0.5, 1, 2, and 4 μM, 24 h): clear MYC-inhibitory effect
- GI50 ([2]; 786-0, Renal Cancer, 786-0): 0.06 µM
- GI50 ([2]; A498, Renal Cancer, A498): 0.13 µM
- GI50 ([2]; A549, Non-Small Cell Lung Cancer, A549/ATCC): 0.06 µM
- GI50 ([2]; ACHN, Renal Cancer, ACHN): 0.04 µM
- GI50 ([2]; BT-549, Breast Cancer, BT-549): 0.28 µM
- GI50 ([2]; CAKI-1, Renal Cancer, CAKI-1): 0.24 µM
- GI50 ([2]; CCRF-CEM, Leukemia, CCRF-CEM): 0.01 µM
- GI50 ([2]; COLO 205, Colon Cancer, COLO 205): 0.07 µM
- GI50 ([2]; DU-145, Prostate Cancer, DU-145): 0.06 µM
- GI50 ([2]; EKVX, Non-Small Cell Lung Cancer, EKVX): 0.43 µM
- GI50 ([2]; HCC 2998, Colon Cancer, HCC-2998): 0.19 µM
- GI50 ([2]; HCT-15, Colon Cancer, HCT-15): 0.15 µM
- GI50 ([2]; HCT-116, Colon Cancer, HCT-116): 0.04 µM
- GI50 ([2]; HL-60, Leukemia, HL-60(TB)): 0.21 µM
- GI50 ([2]; HOP-62, Non-Small Cell Lung Cancer, HOP-62): 0.03 µM
- GI50 ([2]; HOP-92, Non-Small Cell Lung Cancer, HOP-92): 0.15 µM
- GI50 ([2]; HT-29, Colon Cancer, HT29): 0.12 µM
- GI50 ([2]; Hs-578T, Breast Cancer, HS 578T): 0.66 µM
- GI50 ([2]; K562, Leukemia, K-562): 0.18 µM
- GI50 ([2]; KM12, Colon Cancer, KM12): 0.19 µM
- GI50 ([2]; LOX IMVI, Melanoma, LOX IMVI): 0.05 µM
- GI50 ([2]; Leukemia, SR): < 0.01 µM
- GI50 ([2]; MCF7, Breast Cancer, MCF7): < 0.01 µM
- GI50 ([2]; MDA-MB-231, Breast Cancer, MDA-MB-231/ATCC): 0.68 µM
- GI50 ([2]; MDA-MB-435, Melanoma, MDA-MB-435): 0.39 µM
- GI50 ([2]; MOLT-4, Leukemia, MOLT-4): < 0.01 µM
- GI50 ([2]; Malme-3M, Melanoma, MALME-3M): 0.21 µM
- GI50 ([2]; Melanoma, M14): 0.32 µM
- GI50 ([2]; NCI-H23, Non-Small Cell Lung Cancer, NCI-H23): 0.21 µM
- GI50 ([2]; NCI-H226, Non-Small Cell Lung Cancer, NCI-H226): 1.42 µM
- GI50 ([2]; NCI-H322M, Non-Small Cell Lung Cancer, NCI-H322M): 0.34 µM
- GI50 ([2]; NCI-H460, Non-Small Cell Lung Cancer, NCI-H460): < 0.01 µM
- GI50 ([2]; NCI-H522, Non-Small Cell Lung Cancer, NCI-H522): 0.02 µM
- GI50 ([2]; OVCAR-3, Ovarian Cancer, OVCAR-3): 0.41 µM
- GI50 ([2]; OVCAR-4, Ovarian Cancer, OVCAR-4): 0.23 µM
- GI50 ([2]; OVCAR-5, Ovarian Cancer, OVCAR-5): 0.38 µM
- GI50 ([2]; OVCAR-8, Ovarian Cancer, OVCAR-8): 0.07 µM
- GI50 ([2]; Ovarian Cancer, NCl/ADR-RES): 1.04 µM
- GI50 ([2]; Prostate Cancer, PC-3): 0.28 µM
- GI50 ([2]; RPMI-8226, Leukemia, RPMI-8226): 0.1 µM
- GI50 ([2]; RXF 393, Renal Cancer, RXF 393): 0.96 µM
- GI50 ([2]; Renal Cancer, U0-31): 0.1 µM
- GI50 ([2]; SF-268, CNS Cancer, SF-268): 0.07 µM
- GI50 ([2]; SF-295, CNS Cancer, SF-295): 0.08 µM
- GI50 ([2]; SF-539, CNS Cancer, SF-539): 0.11 µM
- GI50 ([2]; SK-MEL-2, Melanoma, SK-MEL-2): 0.55 µM
- GI50 ([2]; SK-MEL-5, Melanoma, SK-MEL-5): 0.07 µM
- GI50 ([2]; SK-MEL-28, Melanoma, SK-MEL-28): 1.11 µM
- GI50 ([2]; SK-OV-3, Ovarian Cancer, SK-OV-3): 0.22 µM
- GI50 ([2]; SN12C, Renal Cancer, SN12C): 0.16 µM
- GI50 ([2]; SNB-19, CNS Cancer, SNB-19): 0.11 µM
- GI50 ([2]; SNB-75, CNS Cancer, SNB-75): 0.23 µM
- GI50 ([2]; SW-620, Colon Cancer, SW-620): 0.04 µM
- GI50 ([2]; T47D, Breast Cancer, T-47D): 0.05 µM
- GI50 ([2]; TK-10, Renal Cancer, TK-10): 0.41 µM
- GI50 ([2]; U-251, CNS Cancer, U251): 0.1 µM
- GI50 ([2]; UACC-62, Melanoma, UACC-62): 0.55 µM
- GI50 ([2]; UACC-257, Melanoma, UACC-257): 1.18 µM
- mean GI50 across NCI-60 panel (MGM) ([2]; average of GI50 values across the entire panel of NCI-60 cancer cell lines): 140 nM
